From ChEMBL document CHEMBL3621111, “In vitro COX-1 and COX-2 enzyme inhibitory activities of iridoids from Penstemon barbatus, Castilleja tenuiflora, Cresentia alata and Vitex mollis” (Bioorg Med Chem Lett, 2015) come the findings set out here.

The target in test [1] is Prostaglandin G/H synthase 1 (Homo sapiens) (UniProt P23219). Briefly: Inhibition of COX1 (unknown origin) assessed as PGH2 production at 10 uM by measuring […] level by enzyme immunoassay.
Test [2] shares this target. Description: Inhibition of COX1 (unknown origin) assessed as PGH2 production at 35 uM by measuring […] level by enzyme immunoassay.
Test [3] has the same target. Description: Inhibition of COX1 (unknown origin) assessed as PGH2 production at 100 uM by measuring […] level by enzyme immunoassay.

Prostaglandin G/H synthase 1 (Homo sapiens), sequence (P23219 whole entry): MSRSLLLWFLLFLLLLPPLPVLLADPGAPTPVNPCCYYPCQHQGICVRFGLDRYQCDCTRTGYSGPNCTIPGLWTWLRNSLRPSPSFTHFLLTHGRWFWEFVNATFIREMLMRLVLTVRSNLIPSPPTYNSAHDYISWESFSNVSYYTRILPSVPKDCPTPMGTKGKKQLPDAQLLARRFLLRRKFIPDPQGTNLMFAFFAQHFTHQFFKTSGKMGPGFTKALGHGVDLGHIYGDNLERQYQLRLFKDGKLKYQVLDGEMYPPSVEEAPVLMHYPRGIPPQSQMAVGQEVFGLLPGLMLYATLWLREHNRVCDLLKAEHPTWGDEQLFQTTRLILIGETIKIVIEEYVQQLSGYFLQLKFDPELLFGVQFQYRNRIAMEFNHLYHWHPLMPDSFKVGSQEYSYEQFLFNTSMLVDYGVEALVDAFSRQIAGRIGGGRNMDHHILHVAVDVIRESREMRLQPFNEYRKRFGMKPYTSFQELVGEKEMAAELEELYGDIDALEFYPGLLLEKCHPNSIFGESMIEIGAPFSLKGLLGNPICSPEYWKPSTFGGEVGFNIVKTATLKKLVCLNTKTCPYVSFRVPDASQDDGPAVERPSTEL

Regarding `COC(=O)C1=CO[C@@H](O[C@@H]2O[C@H](CO)[C@@H](O)[C@H](O)[C@H]2O)[C@H]2[C@@H]1CC[C@]2(C)O`, the inhibition (commonly the change of the read-out against control, counted positive when it falls) in test [1] was less than 30%; in test [2], 42.6%; in test [3], 42.7%.

As for `OCC1=CC[C@@H]2C=CO[C@@H](O[C@@H]3O[C@H](CO)[C@@H](O)[C@H](O)[C@H]3O)[C@H]12`, the results for the inhibition in test [1], in test [2] and in test [3] were 52.7%, 49.9% and 47.5%, respectively.

Consider `C[C@@H]1CC[C@]2(O)C(C=O)=CO[C@@H](O[C@@H]3O[C@H](CO)[C@@H](O)[C@H](O)[C@H]3O)[C@H]12`, for which the inhibition in test [1] is 36.3%; in test [2], 36.6%; in test [3] it was 39.9%.

With `OCC1=C[C@@H](O)[C@@H]2C=CO[C@@H](O[C@@H]3O[C@H](CO)[C@@H](O)[C@H](O)[C@H]3O)[C@H]12`, the inhibition in test [1] turned out to be 49.9%; in test [2] it was 48.2%; in test [3] it was 50.2%.

Regarding `OC[C@H]1O[C@@H](O[C@@H]2OC=C[C@H]3[C@H](O)[C@@H]4O[C@]4(CO)[C@@H]23)[C@H](O)[C@@H](O)[C@@H]1O`, the inhibition was determined as 44.2% in test [1], 47.6% in test [2] and 63.7% in test [3].

`O=C(O)C1=CO[C@@H](O[C@@H]2O[C@H](CO)[C@@H](O)[C@H](O)[C@H]2O)[C@@H]2C(CO)=CC[C@H]12`: the inhibition in test [1] was 55.7%; in test [2], 54.1%; in test [3], 55.3%.

For the compound `C[C@@H]1CC[C@@H]2C(C=O)=CO[C@@H](O[C@@H]3O[C@H](CO)[C@@H](O)[C@H](O)[C@H]3O)[C@H]12`, the inhibition in test [1] was determined as 43%; in test [2], 48%; in test [3] it was 73.3%.

As to `COC(=O)C1=CO[C@@H](O[C@@H]2O[C@H](CO)[C@@H](O)[C@H](O)[C@H]2O)[C@@H]2[C@H](C)C[C@@H](O)[C@]12O`, the inhibition in test [1] was determined as 33.2%; in test [2], 33.4%; in test [3], 51.7%.

As for `COc1ccc(C(=O)O[C@H]2[C@@H]3C=CO[C@@H](O[C@@H]4O[C@H](CO)[C@@H](O)[C@H](O)[C@H]4O)[C@@H]3[C@@]3(CO)O[C@@H]23)cc1OC`, the values for the inhibition in test [1], in test [2] and in test [3] were 38.2%, 38.6% and 39.1%, respectively.

Regarding `CC(=O)O[C@]1(C)C[C@@H](O)[C@]2(O)C=CO[C@@H](O[C@@H]3O[C@H](CO)[C@@H](O)[C@H](O)[C@H]3O)[C@@H]21`, the values for the inhibition in test [1], in test [2] and in test [3] were 38.5%, 38.6% and 39.1%, respectively.

As for `C=C1[C@H]2[C@H](O[C@@H]3O[C@H](CO)[C@@H](O)[C@H](O)[C@H]3O)OC=C(C(=O)O)[C@H]2C[C@@H]1O`, the inhibition in test [1] was found to be 51.7%; in test [2], 51.4%; in test [3], 48.2%.

`C[C@@H]1[C@H]2[C@H](O[C@@H]3O[C@H](CO)[C@@H](O)[C@H](O)[C@H]3O)OC=C(C(=O)O)[C@H]2C[C@@H]1O`: the inhibition in test [1] came out at 36.9%; in test [2], 36%; in test [3], 35.4%.

On to `COC(=O)C1=CO[C@@H](O[C@@H]2O[C@H](CO)[C@@H](O)[C@H](O)[C@H]2O)[C@@H]2[C@H](C)[C@@H](O)C[C@H]12`, for which the inhibition in test [1] was 33.4%; in test [2], less than 30%; in test [3], less than 30%.

For the compound `O=C(OCC1=C[C@@H](O)[C@@H]2C=CO[C@@H](O[C@@H]3O[C@H](CO)[C@@H](O)[C@H](O)[C@H]3O)[C@H]12)c1ccc(O)cc1`, the inhibition in test [1] was found to be 40.3%; in test [2], 40.8%; in test [3] it was 43.4%.

As for `COc1ccc(C(=O)O[C@@H]2C=C(CO)[C@H]3[C@H](O[C@@H]4O[C@H](CO)[C@@H](O)[C@H](O)[C@H]4O)OC=C[C@H]32)cc1`, the inhibition was determined as 35% in test [1], 34.3% in test [2] and 32.8% in test [3].

As to `COC(=O)C1=CO[C@@H](O[C@@H]2O[C@H](CO)[C@@H](O)[C@H](O)[C@H]2O)[C@@H]2[C@@H](C)[C@@H](O)C[C@H]12`, the results for the inhibition in test [1], in test [2] and in test [3] were 51.2%, 51.5% and 50.5%, respectively.
